Data published in article PMC9600515, “Dual Regulatory Role Exerted by Cyclic Dimeric GMP To Control FsnR-Mediated Bacterial Swimming” (mBio, 2022).

How the values were obtained:
FsnR = biological target: T1, FsnR (Stenotrophomonas maltophilia, UniProt B2FQU0); assay: microscale thermophoresis (MST); type: binding; conditions: PBS buffer; labelled protein
T1 construct: gene Smlt2299; full length, recombinant from E. coli BL21(DE3), C-terminal His6 or GST tag (GST cleaved on column); Red NHS labelled for MST

RavS = biological target: T2, RavS (Stenotrophomonas maltophilia, UniProt B2FQW5); assay: microscale thermophoresis (MST); type: binding; conditions: PBS buffer; 20 nM fluorescein-labeled RavS
T2 construct: gene Smlt2324; recombinant from E. coli BL21(DE3), C-terminal His6 or GST tag (GST cleaved); phosphorylated His503; labelled for MST
T2 sequence (B2FQW5 entry or part of it): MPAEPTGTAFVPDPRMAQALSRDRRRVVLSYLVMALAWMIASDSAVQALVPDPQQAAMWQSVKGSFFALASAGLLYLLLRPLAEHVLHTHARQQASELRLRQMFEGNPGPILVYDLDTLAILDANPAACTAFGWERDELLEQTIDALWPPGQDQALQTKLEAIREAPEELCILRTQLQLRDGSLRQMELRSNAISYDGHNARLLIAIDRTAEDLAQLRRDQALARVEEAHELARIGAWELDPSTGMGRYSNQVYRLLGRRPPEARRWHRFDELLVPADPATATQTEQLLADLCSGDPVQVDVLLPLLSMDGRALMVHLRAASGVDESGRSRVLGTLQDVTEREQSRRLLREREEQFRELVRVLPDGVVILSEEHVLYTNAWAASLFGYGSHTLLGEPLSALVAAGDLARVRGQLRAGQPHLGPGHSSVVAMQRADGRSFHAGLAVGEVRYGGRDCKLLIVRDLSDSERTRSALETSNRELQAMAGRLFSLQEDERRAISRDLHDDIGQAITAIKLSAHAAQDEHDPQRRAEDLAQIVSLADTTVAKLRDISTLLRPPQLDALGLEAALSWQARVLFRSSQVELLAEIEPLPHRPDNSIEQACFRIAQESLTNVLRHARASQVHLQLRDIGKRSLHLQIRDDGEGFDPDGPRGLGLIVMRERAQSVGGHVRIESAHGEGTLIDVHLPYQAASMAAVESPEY

T1 sequence (B2FQU0 entry or part of it): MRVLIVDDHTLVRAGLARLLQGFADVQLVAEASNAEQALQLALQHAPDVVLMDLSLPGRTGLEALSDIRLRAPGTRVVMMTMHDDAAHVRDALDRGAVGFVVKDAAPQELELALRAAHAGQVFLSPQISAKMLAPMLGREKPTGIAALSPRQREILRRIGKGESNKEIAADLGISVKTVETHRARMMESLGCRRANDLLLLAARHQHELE

Nc1nc2c(ncn2[C@@H]2O[C@@H]3CO[P@](=O)(O)O[C@H]4[C@@H](O)[C@H](n5cnc6c(=O)[nH]c(N)nc65)O[C@@H]4CO[P@](=O)(O)O[C@H]3[C@H]2O)c(=O)[nH]1 [c-di-GMP]
Kd (FsnR): 3430 ± 1360 nM
Kd (RavS): 1480 ± 360 nM
